Data from patent US20090270435A1 (priority 2006, published 2009).
Counter-ions that a name gives are not always drawn.

Biological target: T1, ACC1 from rat liver (Rattus norvegicus, UniProt P11497)
T1 construct: The livers (for ACC1 preparation) or skeletal muscle tissue (for ACC2 preparation) are removed; from tissue; host or cells: liver of male CD rats (fasted, then fed a high sucrose diet)
Test: Direct inhibition of ACC1 activity (14C-bicarbonate incorporation)
Type: biochemical
Procedure: [1] Preparation of ACC1 and ACC2.
Male CD rats weighing 150-200 g are fasted for 2 days and then fed a high sucrose diet (AIN-76A rodent diet; Cat # D10001, Research Diets Inc., New Brunswick, N.J.), for 3 days at which time they are sacrificed by CO2 asphyxiation. The livers (for ACC1 preparation) or skeletal muscle tissue (for ACC2 preparation) are removed, rinsed in ice-cold phosphate-buffered saline (PBS), and homogenized in 5 volumes of homogenization buffer (50 mM potassium phosphate, pH 7.5, 10 mM EDTA, 10 mM 2-mercaptoethanol, 2 mM benzamidine, 0.2 mM phenylmethylsulfonylfluoride (PMSF), 5 mg/L each leupeptin, aprotinin, and antitrypsin) in a Waring® blender for 1 minute at 4° C. All subsequent operations are carried out at 4° C. The homogenate is made 3% with respect to polyethylene glycol (PEG) by the addition of 50% PEG solution and centrifuged at 20,000×g for 15 minutes. The resulting supernatant is adjusted to 5% PEG with the addition of 50% PEG solution and stirred for 5 minutes. The pellet (contains ACC activity) is collected by centrifugation at 20,000×g for 20 minutes, rinsed with Ice-cold doubly distilled water to remove excess PEG and re-suspended in one-fourth the original homogenate volume with homogenization buffer. Ammonium sulfate (200 g/liter) is slowly added with stirring. After 45 minutes the enzyme is collected by centrifugation for 30 minutes at 20,000×g, re-suspended in 10 ml of 50 mM HEPES, pH7.5, 0.1 mM DTT, 1.0 mM EDTA, and 10% glycerol and desalted on a Sephadex™ G-25 column (2.5 cm-x 50 cm) (Pharmacia, Piscataway N.J. now GE Healthcare) […] equilibrated with the same buffer. The desalted enzyme preparation is stored in aliquots at −70° C. Immediately prior to use, frozen ACC1 or ACC2 aliquots are thawed, diluted to 500 μg/ml in buffer containing 50 mM HEPES, pH7.5, 1.0 mM MgCl2, 10 mM tripotassium citrate, 2.0 mM dithiothreitol (DTT), and 0.75 mg/ml fatty acid-free bovine serum albumin (BSA) and pre-incubated at 37° C. for 30 minutes.
[2] Measurement of ACC inhibition. The procedures for measuring ACC1 inhibition and ACC2 inhibition are identical except for the source of the isozyme. For measurement of ACC activity and assessment of ACC inhibition, test compounds are dissolved in dimethylsulfoxide (DMSO) and 1 μL aliquots are placed in 0.5 ml polypropylene tubes. Control tubes contain 1 μL of DMSO alone. Tubes are incubated at 37° C. in a constant temperature water bath. […] The reaction is then initiated by the addition of 10 μL of preincubated ACC fraction prepared as described above. After 7 minutes the reaction is terminated by the addition of 50 μL of 6N HCl and a 150 μL aliquot of the reaction mixture is transferred to glass scintillation vials and evaporated to dryness at 90° C. for at least 1 hour. The dried vials are then cooled, 0.5 ml of water and 5.5 ml of Ready Safe liquid scintillation fluid (Beckman Coulter Inc., Fullerton, Calif.) are added, and the radioactivity is determined using a liquid scintillation counter. Tubes that received HCl before ACC served as blanks.

Row | IC50 (ACC1 from rat liver) | SMILES | other results
1 | – | Cc1cc2c(cc1C)C(=O)CC1(CCN(C(=O)c3cc(-c4cc[nH]n4)ccc3O)CC1)O2 [Ex. P6, 1′-[2-hydroxy-5-(1H-pyrazol-3-yl)benzoyl]-6,7-dimethylspiro[chromene-2,4′-piperidin]-4(3H)-one trifluoroacetic acid salt] | IC50 (Table of Examples P1-P15): < 3000 nM
2 | 217 nM | COc1ccc2c(c1F)C(=O)CC1(CCN(C(=O)c3cc(Cl)c4[nH]ncc4c3)CC1)O2 [Ex. B11] | –
3 | 75.4 nM | Cc1cc2c(cc1C)C(=O)CC1(CCN(C(=O)c3ccc4c(C)nn(C)c4c3)CC1)O2 [Ex. G3, 1′-[(1,3-dimethyl-1H-indazol-6-yl)carbonyl]-6,7-dimethylspiro[chromene-2,4′-piperidin]-4(3H)-one] | –
4 | 43.8 nM | Cc1cc2c(cc1C)C(=O)CC1(CCN(C(=O)c3ccc4[nH]cc(Cl)c4c3)CC1)O2 [Ex. L9, 1′-[(3-chloro-1H-indol-5-yl)carbonyl]-6,7-dimethylspiro[chromene-2,4′-piperidin]-4(3H)-one] | –
5 | 109 nM | Cc1cc(C(=O)N2CCC3(CC2)CC(=O)c2cc(C(C)C)ccc2O3)cc2cn[nH]c12 [Ex. A23, 6-isopropyl-1′-[(7-methyl-1H-indazol-5-yl)carbonyl]spiro[chromene-2,4′-piperidin]-4(3H)-one] | –
6 | 30.1 nM | Cc1cc2c(cc1C)C(=O)CC1(CCN(C(=O)c3cc(C)c4[nH]ncc4c3)CC1)O2 [Ex. A2, 6,7-dimethyl-1′-[(7-methyl-1H-indazol-5-yl)carbonyl]spiro-[chromene-2,4′-piperidin]-4(3H)-one trifluoroacetic acid salt] | –
7 | 29.5 nM | CCc1cc(C(=O)N2CCC3(CC2)CC(=O)c2c(OC)cc(C)cc2O3)cc2cn[nH]c12 [Ex. C3, 1′-[(7-ethyl-1H-indazol-5-yl)carbonyl]-5-methoxy-7-methylspiro[chromene-2,4′-piperidin]-4(3H)-one] | –
8 | 331 nM | N#Cc1ccc2c(c1)C(=O)CC1(CCN(C(=O)c3cc(Cl)c4[nH]ncc4c3)CC1)O2 [Ex. B14, 1′-[(7-chloro-1H-indazol-5-yl)carbonyl]-4-oxo-3,4-dihydrospiro[chromene-2,4-piperidine]carbonitrile] | –
9 | 670 nM | Cc1cc2c(cc1C)C(=O)CC1(CCN(C(=O)c3cccc4c3ncn4C(C)C)CC1)O2 [Ex. L21, 1′-[(1-isopropyl-1H-benzimidazol-4-yl)carbonyl]-6,7-dimethylspiro[chromene-2,4′-piperidin]-4(3H)-one trifluoroacetic acid salt] | –
10 | 395 nM | Cc1cc(C(=O)N2CCC3(CC2)CC(=O)c2ccc(-c4ccccc4)cc2O3)cc2cn[nH]c12 [Ex. A34, 1′-[(7-methyl-1H-indazol-5-yl)carbonyl]-7-phenylspiro[chromene-2,4′-piperidin]-4(3H)-one] | –
11 | 167 nM | Cc1cc2c(cc1C)C(=O)CC1(CCN(C(=O)c3ccc4cnn(C)c4c3)CC1)O2 [Ex. G2, 6,7-dimethyl-1′-[(1-methyl-1H-indazol-6-yl)carbonyl]spiro[chromene-2,4′-piperidin]-4(3H)-one] | –
12 | 104 nM | Cc1cc(C(=O)N2CCC3(CC2)CC(=O)c2cc(F)c(Cl)cc2O3)cc2cn[nH]c12 [Ex. A22, 7-chloro-6-fluoro-1′-[(7-methyl-1H-indazol-5-yl)carbonyl]spiro[chromene-2,4′-piperidin]-4(3H)-one] | –
13 | 38.2 nM | Cc1cc(C(=O)N2CCC3(CC2)CC(=O)c2cc(C(N)=O)ccc2O3)cc2cn[nH]c12 [Ex. A10, 1′-[(7-methyl-1H-indazol-5-yl)carbonyl]-4-oxo-3,4-dihydrospiro[chromene-2,4′-piperidine]-6-carboxamide] | –
14 | 353 nM | Cc1cc2c(cc1C)C(=O)CC1(CCN(C(=O)c3ccc4nn(C)cc4c3)CC1)O2 [Ex. J3, 6,7-dimethyl-1′-[(2-methyl-2H-indazolyl)carbonyl]spiro[chromene-2,4-piperidin]-4(3H)-one] | –
15 | 28.8 nM | COc1cccc2c1C(=O)CC1(CCN(C(=O)c3ccc4[nH]c5c(c4c3)CCNC5=O)CC1)O2 [Ex. K2, 5-methoxy-1′-[(1-oxo-2,3,4,9-tetrahydro-1H-beta-carbolin-6-yl)carbonyl]spiro[chromene-2,4′-piperidin]-4(3H)-one] | –
16 | 693 nM | CC(C)c1ccc2c(c1)C(=O)CC1(CCN(C(=O)c3cccc4cn[nH]c34)CC1)O2 [Ex. H10, 1′-(1H-indazol-7-ylcarbonyl)-6-isopropylspiro[chromene-2,4-piperidin]-4(3H)-one] | –
17 | < 3000 nM | Cc1cc2c(cc1C)C(=O)CC1(CCN(C(=O)c3ccc4c(c3)CC(=O)N4)CC1)O2 [Ex. L13, 6,7-dimethyl-1′-[(2-oxo-2,3-dihydro-1H-indol-5-yl)carbonyl]spiro[chromene-2,4′-piperidin]-4(3H)-one] | –
18 | 3540 nM | O=C1CC2(CCN(C(=O)c3cccc4cn[nH]c34)CC2)Oc2ccccc21 | –
19 | 63.5 nM | Cc1cc2c(cc1C)C(=O)CC1(CCN(C(=O)c3ccc4[nH]c(-c5ccccn5)nc4c3)CC1)O2 [Ex. L26, 6,7-dimethyl-1′-[(2-pyridin-2-yl-1H-benzimidazol-5-yl)carbonyl]spiro[chromene-2,4′-piperidin]-4(3H)-one trifluoroacetic acid salt] | –
20 | > 1000 nM | O=C1CC2(CCN(C(=O)c3ccc4nc[nH]c4c3)CC2)Oc2ccc(Cl)cc21 [Ex. L34] | –
21 | 80.1 nM | CCc1nn(C)c2cc(C(=O)N3CCC4(CC3)CC(=O)c3cc(C)c(C)cc3O4)ccc12 [Ex. G4, 1′-[(3-ethyl-1-methyl-1H-indazol-6-yl)carbonyl]-6,7-dimethylspiro[chromene-2,4′-piperidin]-4(3H)-one] | –
22 | 1320 nM | Cc1cc(C)c2c(c1)C(=O)CC1(CCN(C(=O)c3cccc4cn[nH]c34)CC1)O2 [Ex. H13, 1′-(1H-indazol-7-ylcarbonyl)-6,8-dimethylspiro[chromen-2,4′-piperidin]-4(3H)-one] | –
23 | – | Cc1cc2c(cc1C)C(=O)CC1(CCN(C(=O)c3cc(-c4ccnn4C)ccc3Cl)CC1)O2 [Ex. P10, 1′-[2-chloro-5-(1-methyl-1H-pyrazol-5-yl)benzoyl]-6,7-dimethylspiro[chromene-2,4′-piperidin]-4(3H)-one] | IC50 (Table of Examples P1-P15): < 3000 nM
24 | 1830 nM | COc1c(Cl)ccc2c1C(=O)CC1(CCN(C(=O)c3cccc4cn[nH]c34)CC1)O2 [Ex. H17, 6-chloro-1′-(1H-indazol-7-ylcarbonyl)-5-methoxyspiro[chromene-2,4′-piperidin]-4(3H)-one] | –
25 | – | COC(=O)c1ccc2c(c1)C(=O)CC1(CCN(C(=O)c3cccc(-c4cc[nH]n4)c3)CC1)O2 [Ex. M11, methyl 4-oxo-1′-[3-(1H-pyrazol-3-yl)benzoyl]-3,4-dihydrospiro[chromene-2,4′-piperidine]-6-carboxylate] | IC50 (Table of Examples M1-M36): 202 nM
26 | 138 nM | COc1cc(C)c2c(c1)OC1(CCN(C(=O)c3cc(C)c4[nH]ncc4c3)CC1)CC2=O [Ex. A28, 7-methoxy-5-methyl-1′-[(7-methyl-1H-indazol-5-yl)carbonyl]spiro[chromene-2,4′-piperidin]-4(3H)-one] | –
27 | – | O=C1CC2(CCN(C(=O)c3cccc(-c4ccn[nH]4)c3)CC2)Oc2ccccc21 [Ex. O1, 1′-[3-(1H-pyrazol-5-yl)benzoyl]spiro[chromene-2,4′-piperidin]-4(3H)-one] | IC50 (Table of Examples O1-O4): 916 nM
28 | 9.98 nM | Cc1cc2c(cc1C)C(=O)CC1(CCN(C(=O)c3ccc4[nH]c5c(c4c3)CCNC5=O)CC1)O2 [Ex. K1, 6,7-dimethyl-1′-[(1-oxo-2,3,4,9-tetrahydro-1H-beta-carbolin-6-yl)carbonyl]spiro[chromene-2,4′-piperidin]-4(3H)-one] | –
29 | 101 nM | COc1cccc2c1C(=O)CC1(CCN(C(=O)c3ccc4[nH]cc(Cl)c4c3)CC1)O2 [Ex. L10, 1′-[(3-chloro-1H-indol-5-yl)carbonyl]-5-methoxyspiro[chromene-2,4′-piperidin]-4(3H)-one] | –
